Measurements reported in patent US20070154965A1, “Chlorotoxin-labeled nanoparticle compositions and methods for targeting primary brain tumors” (priority 2005, published 2007).

Test system: 9L cells
Experiment: Transwell migration (matrigel invasion) assay
Type: cell-based, rat
Settings: 4 μg/ml free chlorotoxin, 24 hrs
Description: Transwell migration assay. The assay was performed by a method reported previously to assess the bioactivity of chlorotoxin. See Deshane et al., J. Biol. Chem. 2003, 278:4135-4144, expressly incorporated herein in its entirety. Prior to the experiment, matrigel invasion chamber inserts (BD Biosciences, Bedford, Mass.) of 8 μm pore size were rehydrated. The lower surfaces of the chamber inserts were immersed in 5 μg/ml solution of vitronectin for 8 hours. 9L cells were then plated at a density of 2.5×10^5 cells per chamber. Cells were treated with solutions of 4 μg/ml of chlorotoxin, and 10 μg Fe/ml of NPCs, respectively. The chambers were then incubated in a 37° C. humidified incubator maintained at 5% CO2 for 24 hrs. The cells on the upper inserts were scrubbed off, and the invaded cells were fixed and stained with Diff-Quik stain kit (IMEB INC., Chicago, Ill.). The filters were then detached from the inserts and mounted on glass slides using immersion oil and imaged on a Nikon E800 upright microscope. Relative inhibition of cell invasion was determined through reduction of migrating cells in presence of chlorotoxin and NPCs. Triplicates of each sample were prepared and cell counts were obtained from five random spots on each filter. The data was then averaged and presented as a relative number of invasive cells per treatment.

chlorotoxin
inhibition of cell invasion: approximately 88%
